Measurements: publication PMC4535769, “The Carboxy Terminus of the Ligand Peptide Determines the Stability of the MHC Class I Molecule H-2K^b: A Combined Molecular Dynamics and Experimental Study” (PLoS ONE, 2015)
Read-outs that look alike come from different tables or passages of the source. Ends that are not written are not given here.

Experiments:
[1] = target: T1, cell surface K^b, RMA-S cells (Mus musculus, UniProt P01901); assay: Brefeldin A (BFA) decay assay, cell surface K^b on RMA-S cells; type: cell-based, murine; details: 10 μM peptide, 10 μg/ml BFA, 37°C, after four hours, MAb Y3, flow cytometry, n = 3
T1 construct: endogenous in cells; host or cells: RMA-S cells (TAP-deficient)
T1 sequence (P01901 22-369): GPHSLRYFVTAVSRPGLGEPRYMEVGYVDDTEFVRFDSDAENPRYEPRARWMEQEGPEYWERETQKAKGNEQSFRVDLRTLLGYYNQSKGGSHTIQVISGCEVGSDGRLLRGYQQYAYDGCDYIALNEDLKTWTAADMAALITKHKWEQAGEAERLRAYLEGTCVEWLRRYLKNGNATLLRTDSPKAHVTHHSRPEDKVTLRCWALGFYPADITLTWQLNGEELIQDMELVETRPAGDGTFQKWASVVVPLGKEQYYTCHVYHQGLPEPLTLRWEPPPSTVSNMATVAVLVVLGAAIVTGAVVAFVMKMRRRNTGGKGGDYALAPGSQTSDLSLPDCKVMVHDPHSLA
T1 sequence (P01887 21-119 partner): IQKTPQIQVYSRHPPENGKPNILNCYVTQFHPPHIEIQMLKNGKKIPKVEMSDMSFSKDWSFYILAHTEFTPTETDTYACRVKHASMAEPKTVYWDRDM
Protocol: RMA-S cells were kept overnight at 25°C and at t = 0 treated with 10 μg/ml BFA (Applichem or Alfa Aesar) and with 10 μM peptide and transferred to 37°C for a maximum of 4 hours. At different time points, cells were washed twice with 1x PBS/0.01% NaN3, and cell surface K^b was measured with the MAb Y3 by flow cytometry.
We then incubated these cells with each peptide and measured the surface residence time of the K^b/peptide complexes by withdrawing aliquots of cells at different times, fixing, and staining with the antibody Y3 followed by flow cytometry (Fig 7, S1I Fig).
RMA-S cells were incubated overnight at 25°C, then 10 μM peptide (as indicated) was added to the medium, and cells were transferred to 37°C. H-2K^b surface levels were determined at each time point with MAb Y3 and flow cytometry. Averages ± SEM (n = 3) are normalized to initial mean fluorescence intensity (MFI).

[2] = target: T2, K^b/β2m (Mus musculus, UniProt P01901); assay: Competitive binding against SIINFEKTAMRAL measured by fluorescence anisotropy (IC50); design: species or system murine
T2 construct: The TDTF analysis was performed on the luminal domain of K^b, which was produced in E.coli; made in house
T2 sequence (P61769 21-119 partner, one chain of several): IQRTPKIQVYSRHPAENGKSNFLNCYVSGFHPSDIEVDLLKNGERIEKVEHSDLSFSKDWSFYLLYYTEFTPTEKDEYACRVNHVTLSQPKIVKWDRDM
Protocol: Steady state measurements were performed with peptide-free folding reactions of K^b/β2m.
K^b was folded empty and then incubated with different concentrations of each peptide variant for five minutes. Then, the index peptide SIINFEKTAMRAL (fluorescently labeled on the lysine side chain) was added as a competitor, and the endpoint of its binding was measured by fluorescence anisotropy. From theory curves fitted to the data, we calculated the half-maximal concentration of inhibition of SIINFEKTAMRAL binding (IC50) for each modified peptide (Fig 6, S1F Fig).
Fig 6 Half-maximal concentration of peptide (IC50) required to inhibit the binding of the high affinity peptide SIINFEKTAMRAL. K^b/β2m complexes derived from the […] (B) structures were folded empty and then incubated for 5 minutes with different concentrations of full-length, truncated, or modified peptides. […] Binding curves (left) are of one representative experiment, and the IC50 values (right) are the average of three experiments.

[3] = target: T2, K^b/β2m; assay: Thermal denaturation by tryptophan fluorescence (TDTF) of K^b/β2m/peptide complexes; type: binding, murine; details: for ∆GTDTF: derived from TDTF measurements by the two-state, single-transition model
Protocol: TDTF measurements and Tm determination were performed exactly as described previously [36].
To test our ranking by experiment, we next used the TDTF (thermal denaturation measured by tryptophan fluorescence) assay to determine the Tm of the K^b/peptide complexes. In this assay, thermal unfolding of the class I molecule is measured by the decrease in fluorescence intensity that occurs when the tryptophan indoles are exposed to the aqueous environment [49, 50]. The TDTF analysis was performed on the luminal domain of K^b, which was produced in E.coli and folded from inclusion bodies as a complex with human β2m and with or without peptide [36]. […] From the Tm values, we derived the ΔΔGTDTF values using the two-state model of denaturation [50, 51].
The folded heavy chain/β2m/peptide complex was prepared by diluting 200 ‏‏µg of the K^b heavy chain, 200 ‏‏µg of human β2m (both produced in E. coli), and none or 10 µM of peptide into 2 ml of the refolding buffer (100 mM Tris-Cl pH 8, 0.5 M arginine, 2 mM EDTA, 0.5 mM oxidized glutathione, 5 mM reduced glutathione), and the reaction was incubated at 4 °C for 48 hours, then ultracentrifuged at 10^5 ×g for 20 min to sediment aggregates. Concentration of soluble protein was then determined using the Bradford assay.
The folded complex was measured in PBS (150 mM NaCl, 10 mM phosphate pH 7.4) in a 1 cm × 1 cm cuvette in a Cary Eclipse fluorimeter (Agilent, Waldbronn, Germany) equipped with a Peltier heater and an in-cuvette thermocouple. The sample was heated at 0.30 K/min, and fluorescence values (λex= 290 nm, λem= 345 nm) were recorded every 0.1 K.
The differentials (F(T+∆T) – F(T))/∆T (with F = fluorescence intensity and ∆T = the temperature interval of recording) were smoothed over 40 points. The minimum of the resulting curve allows a simple optical assessment of the Tm. For display, LOWESS fits [17] to the differentials were performed with GraphPad Prism (GraphPad, La Jolla, CA, USA).
The binding free energy components were derived from the TDTF measurements according to the two-state, single-transition model [18,19]. […]

[4] = K^b/β2m folded empty, incubated 5 min with peptide, then 100 nM SIINFEKTAMRAL, fluorescence anisotropy endpoint, average of three experiments, read-out: IC50, inhibition of SIINFEKTAMRAL binding

With `CC(C)C[C@H](NC(=O)[C@H](C)NC(=O)[C@@H]1CCCN1C(=O)[C@H](Cc1ccc(O)cc1)NC(=O)[C@H](CC(N)=O)NC(=O)CNC(=O)[C@@H]1CCCN1C(=O)[C@H](C)NC(=O)[C@@H](N)Cc1ccccc1)C(=O)O` [FAPGNYPAL] the “K^b/peptide complexes remaining on the cell surface” value [1] was “more than 80%”.
For FAPGNYPA, the IC50 [2] was 18000 nM.
For APGNYPAL [APGNYPAL], the IC50 [2] was 150 nM.
In the case of SIINFEKA, the IC50 [2, 4] is reported as 120 nM.
In the case of SIINFEKL-Cdel, the “∆GTDTF” value [3] is reported as -83.8 ± 8.3 kcal/mol and the “∆∆GTDTF” value ([3]; derived from Tm by the two-state model, relative to the full-length peptide) is reported as 20.7 kcal/mol.
With SIINFEKG the “∆GTDTF” value [3] was -92.6 ± 9.2 kcal/mol.
In the case of `CC[C@H](C)[C@H](NC(=O)[C@@H](NC(=O)[C@@H](N)CO)[C@@H](C)CC)C(=O)N[C@@H](CC(N)=O)C(=O)N[C@@H](Cc1ccccc1)C(=O)N[C@@H](CCC(=O)O)C(=O)N[C@@H](CCCCN)C(=O)N[C@@H](CC(C)C)C(=O)O` [reference compound], the IC50 [2, 4] is reported as 190 nM and the “K^b/peptide complexes remaining on the cell surface” value [1] is reported as “more than 80%”.
